# Measurements taken from publication PMC10816640, “Discovery of Novel Diphenyl Acrylonitrile Derivatives That Promote Adult Rats’ Hippocampal Neurogenesis” (International Journal of Molecular Sciences, 2024).
# Entries after “also recorded” stand apart in the source; their conditions may differ.
# Legend:
# [1] = tested on: progenitor cells in the rodents’ hippocampi; assay: Proliferation stage of neurogenesis: BrdU labeling, rats sacrificed 24 h after BrdU; type: in vivo, rat; conditions: i.p. 4.0 mg/kg/day for 28 days, BrdU pulse, vs vehicle; for proliferation-promoting activity (number of BrdU+ positive cells): nine-week-old rats (n = 4), Figure 8, 4 mg/kg/day
# Description: (§1) Previous in vitro or in vivo studies mainly focused on stimulating the proliferation effect of the small molecules. In this study, a two-step protocol was employed. First, the stimulating function of the compounds on progenitor cells in the rodents’ hippocampi was examined with using bromodeoxyuridine (BrdU) labeling. Next, the potent compounds were further screened to ascertain their ability to promote the differentiation of neural progenitor cells, as confirmed by dual labeling of BrdU and NeuN (neuronal nuclear antigen).
# Adult rats were administered intraperitoneally with the prepared compounds at a dose of 4.0 mg/kg/day for a period of 28 days, followed by a BrdU pulse. After 24 h, the rats were sacrificed, and their brain tissues were isolated and cryosectioned. Immunohistochemical staining was performed and eight brain tissue slices were randomly selected for statistical analyzing.
# Eight-week-old (or 10-week-old) SD male rats purchased from Peking University Health Science Center were acclimatized for one week at the Beijing Institute of Technology. All experimental protocols strictly adhered to the regulations governing the management of experimental animals and the animal ethics policy of the Beijing Institute of Technology.
# (§2) The compounds were dissolved in reagent-grade soybean oil containing 10% ethanol to reach a drug concentration of 2.8 mg/mL. The rats in the experimental group received intraperitoneal injections of the compounds at a dose of 4.0 mg/kg/d for 28 consecutive days. As a control, the vehicle group was administered injections of reagent-grade soybean oil containing 10% ethanol. BrdU (Sigma-Aldrich, St. louis, MA, USA) solution, prepared in physiological saline at a concentration of 10 mg/mL, was administered to all rats on day 29. Each rat received two injections of BrdU at a dosage of 50 mg/kg, with a 2 h interval between injections. The rats were euthanized 24 h (or 28 days) after the final BrdU injection.
# (§3) Two or four rats per group were anesthetized using pentobarbital sodium (70 mg/kg) and subsequently perfused with physiological saline. The brain tissue was carefully dissected and fixed in 4% paraformaldehyde at 4 °C for one week. Next, the brain tissue underwent dehydration using a phosphate-buffered saline (PBS) solution containing 20% to 30% sucrose. Finally, the brain tissue was cryosectioned into slices with a thickness of 30 μm, and eight slices were randomly selected for further analysis.
# The assessment of new cell proliferation was conducted using BrdU staining. To eliminate endogenous peroxides, sections were exposed to 1% H2O2 for 30 min at RT. Cellular denaturation was achieved by treating the sections with 2 M HCl at 37 °C for 1 h, followed by rinsing in 0.1 M borate buffer (pH 8.5). Tissue sections were subjected to blocking in a solution consisting of 5% goat serum and 0.5% Triton X-100 in PBS at RT for 1–2 h. The specimens were then incubated overnight at 4 °C with a mouse primary antibody specific to BrdU (diluted at 1:500; Millipore, Billerica, MA, USA). Subsequently, the DAB kit was employed for 2 h of incubation at RT.
# (§4) The data were presented as mean ± SEM (standard error of the mean) and visualized using GRAPHPAD PRISM 6 (Graphpad Software, La Jolla, CA, USA). Statistical analysis was conducted utilizing one-way analysis of variance (ANOVA) followed by a post hoc test. Subsequent to the statistical treatment, the observed discrepancies were determined to be statistically significant (p < 0.05).
# [2] = tested on: newborn neural progenitor cells (differentiation into mature neurons); assay: Differentiation stage of neurogenesis: NeuN/BrdU double staining, rats sacrificed 28 days after BrdU; type: in vivo, rat; conditions: for neurogenesis-promoting activity (number of NeuN+ and BrdU+ cells), differentiation stage: nine-week-old rats (n = 4), i.p. 4.0 mg/kg, Figure 9, 4 mg/kg
# Description: as §1
# The study employed a rat model, wherein nine-week-old rats were administered intraperitoneally with the compound at a dose of 4.0 mg/kg/day for 28 days and then treated with a pulse of BrdU. Instead of sacrificing the rats 24 h after the BrdU injections, the rats were sacrificed after another 28 days. The brains were then isolated and cryosectioned. Eight randomly selected slices were subjected to immunohistochemical staining. This staining enabled the co-localization of the BrdU-incorporated cells with the NeuN marker, enabling the definition of the compounds that could promote the differentiation of newborn neural progenitor cells into mature functional neurons.
# as §2, §3
# The differentiation process of NPCs was visualized through the utilization of the NeuN/BrdU double staining technique. Tissue sections were subjected to an incubation period in a blocking buffer at RT for 1 to 2 h. The specimens were exposed to a rabbit anti-NeuN antibody (diluted at 1:500, Abcam, Cambridge, MA, UK) and a primary antibody, BrdU (diluted at 1:500), overnight at 4 °C. Afterwards, the sections were treated with anti-mouse 488 and anti-rabbit TRITC secondary antibodies for 2 h at RT.
# as §4
# hCMEC/D3 cells = assay: CCK-8 assay for cytotoxicity; type: cell-based; conditions: hCMEC/D3 cell lines, CCK-8, 48 h incubation
# Description: hCMEC/D3 cells were obtained from the Cell Resource Center, Peking Union Medical College (PCRC). All cells were acquired in 2023 and were maintained in culture for no more than 10 continuous passages. The cells were cultured in DMEM (11995065, Gibco, Grand Island, NY, USA) supplemented with 10% FBS (164210-50, Procell, Austin, TX, USA), 100 units of penicillin, and […] of streptomycin (PB180120, Procell).
# hCMEC/D3 cells (5 × 10^3) were seeded into 96-well plates in 90 μL of DMEM medium containing 10% fetal bovine serum per well. All test compounds were formulated as 10 mM stock solutions in DMSO (final concentration ≤ 0.5%). After overnight incubation, the test compound stock solution was diluted with DMEM medium containing 10% fetal bovine serum to every target concentration, and 10 μL of each was added to each well. Three parallel experiments were set up for each compound. After incubation for 48 h, 10 μL of CCK-8 reagent was added to each well in sequence according to the manufacturer’s instructions. After incubating in a 37 °C incubator for 1–2 h, the absorbance was measured at a wavelength of 450 nm, using a wavelength of 620 nm as a reference, and detected with a ThermoScientific Multiskan FC (Thermo Fisher Scientific). The graphs are representative results, and this experiment was independently repeated three times with similar results.
Structure (SMILES),"proliferation-promoting activity (number of BrdU+ newborn cells) ([1]; eleven-week-old rats (n = 2), Figures 3-6, 4 mg/kg/day)",proliferation-promoting activity (number of BrdU+ positive cells) [1],"neurogenesis-promoting activity (number of NeuN+ and BrdU+ cells, newborn neurons) ([2]; nine-week-old rats (n = 2), i.p. 4.0 mg/kg/day for 28 days, BrdU pulse, Figure 7B, 4 mg/kg/day)","neurogenesis-promoting activity (number of NeuN+ and BrdU+ cells), differentiation stage [2]",IC50 (hCMEC/D3 cells) [µM]
"CC(C)C(=O)Nc1ccc(/C(C#N)=C/c2ccc3c(c2)OCO3)cc1 [29b, (Z)-N-(4-(2-(benzo[d][1, 3]dioxol-5-yl)-1-cyanovinyl)phenyl)isobutyramide]",significant proliferation-promoting activity; also recorded: satisfactory activity,significant proliferation-promoting activity; also recorded: exhibited proliferative activity,significant neurogenesis-promoting activity; also recorded: significantly increased the number of newborn neurons,significant neurogenesis-promoting activity; also recorded: better activity than the clinical drug NSI-189,> 200
"CC(C)C(=O)Nc1ccc(/C=C(\C#N)c2ccc3c(c2)OCO3)cc1 [32b, (Z)-N-(4-(2-(benzo[d][1, 3]dioxol-5-yl)-2-cyanovinyl)phenyl)isobutyramide]",,significant proliferation-promoting activity; also recorded: exhibited proliferative activity,,significant neurogenesis-promoting activity; also recorded: better activity than the clinical drug NSI-189; also recorded: highest activity,> 200
